According to ChEMBL document CHEMBL5365490, “Enhanced tumor specific drug release by hypoxia sensitive dual-prodrugs based on 2-nitroimidazole” (Bioorg Med Chem Lett, 2023):
Values belong to the compound of their own block, whether it stands above or below them. The source made the active and inactive calls. The calls are words filed in the database; no cut-off is given here.

Columns and labels:
[1] = system: MIA PaCa-2; test: Antiproliferative activity against human MIA-PaCa-2 cells assessed as reduction in cell viability > 0.1 uM measured for 72 hrs under hypoxia condition by MTT assay; type: functional, cell-based
[2] = system: MIA PaCa-2; test: Antiproliferative activity against human MIA-PaCa-2 cell assessed as inhibition of cell growth > 0.1 uM measured for 72 hrs under normoxia condition by MTT assay; type: functional, cell-based
[3] = Half life in PBS buffer at pH 7.4 measured upto 72 hrs by LC/MS analysis; type: physicochemical
[4] = Chemical stability of compound in PBS at pH 7.4 assessed as remaining parent compound incubated for 6 hrs by LC/MS analysis; type: physicochemical; conditions: buffer, pH 7.4, 6 h
[5] = Stability of compound in human MIA Paca-2 cells homogenates assessed as remaining parent compound incubated for 6 hrs by LC/MS analysis; type: ADME, cell-based; conditions: mia paca-2, 6 h
[6] = Chemical stability of compound in PBS at pH 7.4 assessed as remaining parent compound incubated for 24 hrs by LC/MS analysis; type: physicochemical; conditions: buffer, pH 7.4, 24 h
[7] = Stability of compound in human MIA Paca-2 cells homogenates assessed as remaining parent compound incubated for 24 hrs by LC/MS analysis; type: ADME, cell-based; conditions: mia paca-2, 24 h
[8] = system: MIA PaCa-2; test: Antiproliferative activity against human MIA-PaCa-2 cells assessed as reduction in cell viability > 1 uM measured for 72 hrs under hypoxia condition by MTT assay; type: functional, cell-based
[9] = Chemical stability of compound in PBS at pH 7.4 assessed as remaining parent compound after 1 hrs of incubation by LC/MS analysis; type: physicochemical; conditions: buffer, pH 7.4, 1 h
[10] = Stability of compound in human MIA Paca-2 cells homogenates assessed as drug degradation incubated for 6 hrs by LC/MS analysis; type: ADME, cell-based; conditions: MIA PaCa-2 cell homogenates, read-out: Drug degradation
[11] = Drug metabolism in human MIA PaCa-2 cells homogenates assessed as gemcitabine formation incubated for 24 hrs by LC/MS analysis; type: ADME, cell-based; conditions: mia paca-2, 24 h
[12] = Drug metabolism in human MIA PaCa-2 cells homogenates assessed as (S)-2-(2,3-dichloro-4H-thieno[3,2-b]pyrrole-5-carboxamido)-3-(2-nitro-1H-imidazol-1-yl)propanoic acid formation incubated for 24 hrs by LC/MS analysis; type: ADME, cell-based; conditions: mia paca-2, 24 h

Structure (SMILES): Nc1ccn([C@@H]2O[C@H](CO)[C@@H](O)C2(F)F)c(=O)n1
- Activity [1]: Active
- Activity [2]: Active

- half-life [3]: 40 h
Structure (SMILES): Nc1nccn1C[C@@H](NC(=O)c1cc2sc(Cl)c(Cl)c2[nH]1)C(=O)Nc1ccc(COC(=O)Nc2ccn([C@@H]3O[C@H](CO)[C@@H](O)C3(F)F)c(=O)n2)cc1

- Stability [4]: Stable
- Stability [5]: Stable
- Stability [6]: Stable
- Stability [7]: Stable
Structure (SMILES): O=C(Nc1ccn([C@@H]2O[C@H](CO)[C@@H](O)C2(F)F)c(=O)n1)OCc1ccc(NC(=O)[C@@H](Cn2ccnc2[N+](=O)[O-])NC(=O)c2cc3sc(Cl)c(Cl)c3[nH]2)cc1
- Activity [8]: Active

- Stability [9]: Unstable
- metabolised at 6 h [10]: > 50%
- Drug metabolism [11]: Metabolite_Detected
- Drug metabolism [12]: Metabolite_Detected
Structure (SMILES): Nc1ccn([C@@H]2O[C@H](COC(=O)[C@H](Cn3ccnc3[N+](=O)[O-])NC(=O)c3cc4sc(Cl)c(Cl)c4[nH]3)[C@@H](O)C2(F)F)c(=O)n1
